Assay results: paper PMC3025571 (Nucleic Acids Research, 2010)
Like-named read-outs stand apart in the source and are kept apart here.

Molecular target: human FEN1 (Homo sapiens, UniProt P39748)
Experiment: Kinetic fluorogenic
Type: biochemical

human FEN1, sequence (P39748 whole entry): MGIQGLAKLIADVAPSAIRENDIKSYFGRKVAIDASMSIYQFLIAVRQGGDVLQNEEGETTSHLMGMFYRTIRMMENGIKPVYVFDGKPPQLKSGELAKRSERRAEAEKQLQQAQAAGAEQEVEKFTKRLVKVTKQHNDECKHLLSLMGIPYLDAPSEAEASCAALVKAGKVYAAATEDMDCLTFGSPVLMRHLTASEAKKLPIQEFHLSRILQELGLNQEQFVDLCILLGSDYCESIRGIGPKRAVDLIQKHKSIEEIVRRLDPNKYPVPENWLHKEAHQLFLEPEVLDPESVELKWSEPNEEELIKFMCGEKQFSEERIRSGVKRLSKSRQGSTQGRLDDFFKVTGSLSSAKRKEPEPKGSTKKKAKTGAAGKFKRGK

O=C(O)C1=CC(=C(c2ccc(O)c(C(=O)O)c2)c2ccc(O)c(C(=O)O)c2)C=CC1=O [ATA, aurintricarboxylic acid]
IC50 (average IC50, average of the fluorogenic and AlphaScreen assays): 590 nM

C[S+](C)[O-] [DMSO, Dimethyl sulfoxide]
inhibition of FEN1 (concentrations up to 0.67%, data not shown, assay format not specified): not inhibit

O=C(O)c1cc[c]([Sb](=[O])([OH])[OH])cc1[N+](=O)[O-] [NSC-13755]
IC50 (read-out: average IC50, average of the fluorogenic and AlphaScreen assays): 930 nM
